Values of other authors as cited in patent US20080314115A1, “Compliance Apparatus” (Zenics Limited, priority 2005, published 2008).

Conditions: after disulfiram dose

S=C=S [carbon disulphide]
breath elimination half-life: 13.3 h
